Measurements published in PubChem BioAssay AID256 (DTP/NCI, 2004).
Several values for one entry are separate records, joined by “and”; a condition that tells them apart may be missing. Identical values can stand only once. Inconclusive results and toxic doses are left out. How the source made its calls: active means survival T/C of 150% or more; inactive means T/C below 125% in these data.

Tested on: CD2F1 mice, L1210 leukemia ip, survival T/C
Test: NCI In Vivo Anticancer Drug Screen. Data for tumor model L1210 Leukemia (intraperitoneal) in CD2F1 (CDF1) mice
Details: higher = longer survival
Outline: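 Vehicle-treated tumor-bearing mice served as controls (C) for compound-treated mice (T). Reported figure is T divided by C.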

[1] = endpoint: mean survival time, dose: 100.0 mg/kg/injection, schedule: Q01DX009 (ip), vehicle: saline with Tween-80
[2] = endpoint: mean survival time, dose: 100.0 mg/kg/injection, schedule: Q04DX003 (ip), vehicle: saline with Tween-80
[3] = endpoint: mean survival time, dose: 200.0 mg/kg/injection, schedule: Q01DX009 (ip), vehicle: saline with Tween-80
[4] = endpoint: mean survival time, dose: 200.0 mg/kg/injection, schedule: Q04DX003 (ip), vehicle: saline with Tween-80
[5] = endpoint: mean survival time, dose: 400.0 mg/kg/injection, schedule: Q01DX009 (ip), vehicle: saline with Tween-80
[6] = endpoint: mean survival time, dose: 400.0 mg/kg/injection, schedule: Q04DX003 (ip), vehicle: saline with Tween-80
[7] = endpoint: mean survival time, dose: 100.0 mg/kg/injection, schedule: Q01DX001 (ip), vehicle: saline with Tween-80
[8] = endpoint: mean survival time, dose: 200.0 mg/kg/injection, schedule: Q01DX001 (ip), vehicle: saline with Tween-80
[9] = endpoint: mean survival time, dose: 100.0 mg/kg/injection, schedule: Q04DX003 (ip), vehicle: saline
[10] = endpoint: mean survival time, dose: 200.0 mg/kg/injection, schedule: Q04DX003 (ip), vehicle: saline
[11] = endpoint: mean survival time, dose: 400.0 mg/kg/injection, schedule: Q04DX003 (ip), vehicle: saline
[12] = endpoint: mean survival time, dose: 100.0 mg/kg/injection, schedule: Q01DX001 (ip), vehicle: saline
[13] = endpoint: mean survival time, dose: 200.0 mg/kg/injection, schedule: Q01DX001 (ip), vehicle: saline
[14] = endpoint: mean survival time, dose: 400.0 mg/kg/injection, schedule: Q01DX001 (ip), vehicle: saline
[15] = endpoint: mean survival time, dose: 400.0 mg/kg/injection, schedule: Q01DX001 (ip), vehicle: saline with Tween-80
[16] = endpoint: mean survival time, dose: 25.0 mg/kg/injection, schedule: Q04DX002 (ip), vehicle: saline with Tween-80
[17] = endpoint: mean survival time, dose: 50.0 mg/kg/injection, schedule: Q04DX002 (ip), vehicle: saline with Tween-80
[18] = endpoint: mean survival time, dose: 100.0 mg/kg/injection, schedule: Q04DX002 (ip), vehicle: saline with Tween-80
[19] = endpoint: mean survival time, dose: 200.0 mg/kg/injection, schedule: Q04DX002 (ip), vehicle: saline with Tween-80
[20] = endpoint: mean survival time, dose: 400.0 mg/kg/injection, schedule: Q04DX002 (ip), vehicle: saline with Tween-80

Measured: T/C

COc1ccc(Cc2nc(C)cc3cc(OC)c(OC)cc23)cc1OC
inactive: endpoint: mean survival time, dose: 25.0 mg/kg/injection, schedule: Q01DX009 (ip), vehicle: water 92 % of control

O=C(c1ccc(F)cc1)c1ccccc1Cl
inactive: [1] 102 % of control | [2] 105 % of control | [3] 97 % of control | [4] 98 % of control | [5] 97 % of control | [6] 98 % of control

CC/C=C/CC(=O)NCc1ccc(O)c(OC)c1
inactive: [7] 101 % of control | [8] 103 % of control

ClC12CCC(CC1)C2
inactive: [9] 100 % of control | [10] 94 % of control | [11] 100 % of control

O=NC1CC=CC1Cl (stereo unspecified)
inactive: [12] 96 % of control and 98 % of control | [13] 107 % of control and 102 % of control | [14] 101 % of control and 98 % of control

COC(=O)C(C(=O)c1ccccc1)c1ccccc1 (stereo unspecified)
inactive: [7] 94 % of control | [8] 97 % of control | [15] 90 % of control

O=[N+]([O-])c1ccc(Oc2ccc(S(=O)(=O)O)cc2)cc1
inactive: [16] 95 % of control | [17] 103 % of control | [18] 91 % of control

CC(=O)Oc1ccc2c(c1)C(=O)CCC=C2
inactive: endpoint: mean survival time, dose: 12.5 mg/kg/injection, schedule: Q01DX009 (ip), vehicle: other 103 % of control | endpoint: mean survival time, dose: 25.0 mg/kg/injection, schedule: Q01DX009 (ip), vehicle: other 106 % of control | endpoint: mean survival time, dose: 50.0 mg/kg/injection, schedule: Q01DX009 (ip), vehicle: other 108 % of control

CS(C)=C1C(=O)NC(=S)NC1=O
inactive: endpoint: median survival time, dose: 20.75 mg/kg/injection, schedule: Q01DX009 (ip), vehicle: saline with Tween-80 108 % of control | endpoint: median survival time, dose: 41.5 mg/kg/injection, schedule: Q01DX009 (ip), vehicle: saline with Tween-80 102 % of control | endpoint: median survival time, dose: 83.0 mg/kg/injection, schedule: Q01DX009 (ip), vehicle: saline with Tween-80 111 % of control | endpoint: median survival time, dose: 166.0 mg/kg/injection, schedule: Q01DX009 (ip), vehicle: saline with Tween-80 107 % of control

Cc1ccc(C)c(C(=O)O)c1N
inactive: [2] 95 % of control | [4] 95 % of control | [6] 100 % of control

COC(=O)c1c[nH]c(=S)n1C(C)c1ccccc1 (stereo unspecified)
inactive: [1] 105 % of control | [2] 93 % of control | [3] 106 % of control | [4] 95 % of control | [6] 101 % of control

CCC/C=N\O
inactive: [9] 110 % of control | [10] 93 % of control | [11] 100 % of control

Nc1nc(NC2OC(CO)C(O)C2O)c2nnsc2n1 (stereo unspecified)
inactive: endpoint: mean survival time, dose: 75.0 mg/kg/injection, schedule: Q01DX001 (ip), vehicle: saline 96 % of control | endpoint: mean survival time, dose: 150.0 mg/kg/injection, schedule: Q01DX001 (ip), vehicle: saline 100 % of control | endpoint: mean survival time, dose: 300.0 mg/kg/injection, schedule: Q01DX001 (ip), vehicle: saline 88 % of control

Cc1ccc(C(C)(C)C[P+](C)(c2ccccc2)c2ccccc2)cc1
inactive: endpoint: mean survival time, dose: 50.0 mg/kg/injection, schedule: Q01DX009 (ip), vehicle: Klucel (hydroxypropylcellulose) (HPC) 100 % of control | endpoint: mean survival time, dose: 100.0 mg/kg/injection, schedule: Q01DX009 (ip), vehicle: Klucel (hydroxypropylcellulose) (HPC) 102 % of control

Clc1ccc2c(NCc3ccncc3)ccnc2c1
inactive: [2] 96 % of control | [4] 95 % of control | [6] 96 % of control

C[Si](C)(C)C1CCC2C3C=CC(C3)C21 (stereo unspecified)
inactive: endpoint: mean survival time, dose: 100.0 mg/kg/injection, schedule: Q04DX003 (ip), vehicle: alcohol 107 % of control | endpoint: mean survival time, dose: 200.0 mg/kg/injection, schedule: Q04DX003 (ip), vehicle: alcohol 96 % of control | endpoint: mean survival time, dose: 400.0 mg/kg/injection, schedule: Q04DX003 (ip), vehicle: alcohol 96 % of control

CCN(C)N=Nc1ccc(NC(N)=O)cc1
inactive: endpoint: mean survival time, dose: 4.68 mg/kg/injection, schedule: Q01DX009 (ip), vehicle: Klucel (hydroxypropylcellulose) (HPC) 109 % of control and 112 % of control | endpoint: mean survival time, dose: 9.37 mg/kg/injection, schedule: Q01DX009 (ip), vehicle: Klucel (hydroxypropylcellulose) (HPC) 119 % of control and 108 % of control | endpoint: mean survival time, dose: 18.75 mg/kg/injection, schedule: Q01DX009 (ip), vehicle: Klucel (hydroxypropylcellulose) (HPC) 124 % of control
active: endpoint: mean survival time, dose: 37.5 mg/kg/injection, schedule: Q01DX009 (ip), vehicle: Klucel (hydroxypropylcellulose) (HPC) 152 % of control

OCC1OC(n2ccc3c2ncn2cnnc32)C(O)C1O (stereo unspecified)
inactive: endpoint: mean survival time, dose: 6.25 mg/kg/injection, schedule: Q01DX005 (ip), vehicle: water 104 % of control | endpoint: mean survival time, dose: 12.5 mg/kg/injection, schedule: Q01DX005 (ip), vehicle: water 103 % of control | endpoint: mean survival time, dose: 25.0 mg/kg/injection, schedule: Q01DX005 (ip), vehicle: water 92 % of control | endpoint: mean survival time, dose: 50.0 mg/kg/injection, schedule: Q01DX005 (ip), vehicle: water 92 % of control | endpoint: mean survival time, dose: 100.0 mg/kg/injection, schedule: Q01DX005 (ip), vehicle: water 92 % of control | endpoint: mean survival time, dose: 200.0 mg/kg/injection, schedule: Q01DX005 (ip), vehicle: water 89 % of control | endpoint: mean survival time, dose: 400.0 mg/kg/injection, schedule: Q01DX005 (ip), vehicle: water 95 % of control

NC(=S)N/N=C\c1nccc2c(C(F)(F)F)cccc12
inactive: [18] 124 % of control | [19] 89 % of control

CNC1CCCCC1[N+](C)(C)C (stereo unspecified)
inactive: endpoint: mean survival time, dose: 5.0 mg/kg/injection, schedule: Q01DX009 (ip), vehicle: saline 98 % of control | endpoint: mean survival time, dose: 5.0 mg/kg/injection, schedule: Q04DX003 (ip), vehicle: saline 103 % of control | endpoint: mean survival time, dose: 10.0 mg/kg/injection, schedule: Q01DX009 (ip), vehicle: saline 101 % of control | endpoint: mean survival time, dose: 10.0 mg/kg/injection, schedule: Q04DX003 (ip), vehicle: saline 101 % of control | endpoint: mean survival time, dose: 20.0 mg/kg/injection, schedule: Q01DX009 (ip), vehicle: saline 96 % of control | endpoint: mean survival time, dose: 20.0 mg/kg/injection, schedule: Q04DX003 (ip), vehicle: saline 98 % of control

C=C(Br)COCC
inactive: [2] 89 % of control

N#CC(CCC(=O)O)(CCC(=O)O)c1ccccc1
inactive: [1] 96 % of control | [3] 96 % of control | [5] 96 % of control

C1CC[N-]CC1.C1CC[N-]CC1.[Cl][Pd][Cl]
inactive: [16] 89 % of control | [17] 96 % of control

COC(=O)c1cocc1C(=O)OC
inactive: [18] 95 % of control | [19] 91 % of control | [20] 95 % of control

CC1(C)COC(c2ccccc2Br)=N1
inactive: [7] 109 % of control | [8] 101 % of control | [15] 101 % of control

Cc1ccc(C(=O)CCCCl)cc1C
inactive: [1] 104 % of control | [3] 96 % of control | [5] 98 % of control

CC1=NN(c2cccc(S(=O)(=O)O)c2)C(=O)C1Cl (stereo unspecified)
inactive: endpoint: mean survival time, dose: 50.0 mg/kg/injection, schedule: Q01DX009 (ip), vehicle: saline with Tween-80 98 % of control | [1] 95 % of control | [3] 95 % of control

Cc1ccc(S(=O)(=O)/C=C(\I)c2ccc([N+](=O)[O-])cc2)cc1
inactive: endpoint: mean survival time, dose: 50.0 mg/kg/injection, schedule: Q04DX003 (ip), vehicle: saline 96 % of control | [9] 87 % of control

CCOCCO
inactive: endpoint: mean survival time, dose: 5.0 mg/kg/injection, schedule: Q01DX001 (ip), vehicle: saline sonified 103 % of control | endpoint: mean survival time, dose: 10.0 mg/kg/injection, schedule: Q01DX001 (ip), vehicle: saline sonified 101 % of control | endpoint: mean survival time, dose: 20.0 mg/kg/injection, schedule: Q01DX001 (ip), vehicle: saline sonified 101 % of control

O=C(O)CCC(=O)CCC(=O)c1ccc2ccccc2c1
inactive: [12] 98 % of control | [13] 98 % of control | [14] 95 % of control

C=C1C(=O)O[C@@H]2[C@H]1[C@@H](OC(C)=O)C[C@H](C)[C@@H]1CCC(=O)[C@@]21C
inactive: [1] 93 % of control | [3] 89 % of control | [5] 92 % of control

O=C(NC(=S)Nc1ccc(CCO)cc1)c1cccc(Br)c1
inactive: [7] 104 % of control | [1] 97 % of control and 98 % of control | [18] 88 % of control and 101 % of control | [2] 100 % of control | [8] 98 % of control | [3] 101 % of control and 108 % of control | [19] 91 % of control and 92 % of control | [4] 100 % of control | [15] 104 % of control | [5] 86 % of control and 106 % of control | [20] 95 % of control | [6] 93 % of control

Cc1ccc2nc(-c3cccc([N+](=O)[O-])c3)oc(=O)c2c1
inactive: [1] 97 % of control | [3] 96 % of control | [5] 94 % of control

Brc1ccc(Br)cc1
inactive: [1] 103 % of control | [3] 100 % of control | [5] 97 % of control
